Results as given in paper PMC9221371, “Flavonoid Derivatives as Potential Cholinesterase Inhibitors in Scopolamine-Induced Amnesic Mice: An In Vitro, In Vivo and Integrated Computational Approach” (Brain Sciences, 2022).
Like-named read-outs stand apart in the source and are kept apart here.

Key:
Balb/C mice = assay: Acute toxicity study; format: in vivo; conditions: n = 3; for ALP / AST / Creatinine / Glucose / Total Cholesterol / Triglyceride: blood; for Kidney Weight / Liver Weight / Total Weight: mice
Text: Two weeks before the experiment, the animals were acclimatized to laboratory conditions.
(§1) For assessment of acute toxicity of the flavones (F1–F5), animals (21 in number) were divided into groups of 3 animals each. The reported protocols by Lorke were followed with slight modification to perform tests in two phases. In the first phase, one (control) group of animals were given Tween-80 (2%), and oral doses of F1–F5 were given to the remaining groups, respectively, at various doses (mg/kg body weight). […] The animals were housed in plastic cages. After two weeks, the animals were sacrificed by euthanasia with isoflurane in a humane manner for assessment of the effects on total weight and weight of the vital organs. The biochemical parameters of blood and histological studies of vital organs (kidney and liver tissue) were also assessed. […] The preliminary pharmacological activity was assessed at various dose concentrations of F1–F5 (2.5–20 mg/kg b.w.) to determine the effective dose for assessment of cognitive function using animal models.

[1] = system: scopolamine-induced amnesic mice; assay: Y-Maze Paradigm, spontaneous alternation in scopolamine-induced amnesic model; format: in vivo, Balb/C mice; conditions: for Spontaneous Alternation Performance: scopolamine 1 mg/kg i.p., n = 8
Text: as §1
(§2) The animals in the control (normal) and scopolamine amnesic groups were administered vehicle (Tween-80, 2%) only. Treated animals received F1–F5 suspended in Tween-80 (2%) p.o. at their respective doses for a period of 4 weeks. […] For assessing behavioral effects using the Y-Maze Paradigm and novel object discrimination (NOD) task, scopolamine (1 mg/kg, i.p.) was given to the different groups, 30 min after the respective treatments, to induce memory impairment (amnesia) in mice. All of the tests were performed between 8:00 a.m. and 6:00 p.m. to avoid sham results in the performance of the animals.
(§3) Behavioral tasks on the Y-Maze Paradigm and “NOD” tasks were conducted in the 5th week of study to determine learning and memory functions. The apparatus arena was cleaned with 70% ethanol during the inter-trial interval to prevent a confounding error due to the influence of odor [20, 21].
The Y-Maze task is a non-invasive and reliable behavioral test that was used for memory assessment of spontaneous alternation for F1–F5 based on previously reported protocols. A single session of Y-Maze was used to record the spontaneous alternation behavior of the animals to determine exploratory behavior and instant memory functioning. The apparatus was made of three arms in a “Y” shape (35 cm × 8 cm × 15 cm) with an equilateral triangular central area. In brief, each of the mice, previously naive to the maze, was placed at the terminal end of one arm. The animals were allowed to move and explore freely for 8 min through the maze. The number of arm entries was noted. One arm entry was considered when the hind paws of the animal were completely placed inside the arm, and the series of arm entries were documented. The spontaneous alternation in percent was calculated.

[2] = target: T1, BuChE (equine serum lyophilized) (Equus caballus, UniProt P81908); assay: biochemical; conditions: triplicate; read-out: BChE IC50 (converted)
T1 construct: purchased Sigma-Aldrich (Taufkirchen, Germany); host or cells: equine serum
Description: (§4) Synthetic flavonoids F1–F5 previously synthesized by our group were used in the study.
(§5) For the determination of acetylcholinesterase inhibitory potentials, AChE and BuChE were used. […] To the tube were added DTNB (100 µL) and buffer (2.4 mL). The tube was incubated at 25 °C for 5 min as pre-incubation. The reaction was started by adding ATChI (40 µL), and the mixture was incubated at 25 °C for 20 min. The absorbance at 412 nm was measured spectrophotometrically in triplicate. […] The data were recorded in triplicate, and IC50 was calculated.

[3] = target: T2, AChE (electric eel type-VI-S) (Electrophorus electricus, UniProt O42275); assay: biochemical; conditions: 25 °C, triplicate
T2 construct: purchased Sigma-Aldrich (Taufkirchen, Germany)
Description: as §4, §5

[4] = system: scopolamine-induced amnesic mice; assay: Novel object discrimination (NOD) task in scopolamine-induced amnesic model; format: in vivo, Balb/C mice; conditions: scopolamine 1 mg/kg i.p., n = 8
Description: as §2, §3
Animals were challenged for the novel object discrimination task for F1–F5 as per previously reported protocols. After habituation and acclimatization, animals in each group had two consecutive object exploration trials (5 min each) for this test, with a break of 4 h in between two trials. In the familiarization phase (sample), the animals were challenged to explore two objects similar to each other. In the second phase (test), any of the two objects was changed by a new object. Exploration time in sec for the objects, including chewing, licking, sniffing or pointing the vibrissae of nose towards the object, was recorded. The discrimination ratio (%DI) was then determined using:(T novel object − T familiar object)/(T novel object + T familiar object) × 100(1)

[5] = system: brains of scopolamine-induced amnesic mice; assay: Antioxidant enzyme activities and oxidative stress markers in brain homogenate; format: in vivo, Balb/C mice; conditions: for GSH / MDA: n = 8
Description: as §2
(§6) The brain was extracted, and a homogenate (10% w/v) in 0.1 M of phosphate buffer (pH 7.4) was prepared by centrifugation for the assessment of brain oxidative status and estimating brain acetylcholinesterase activity. Catalase (CAT), superoxide dismutase (SOD), glutathione (GSH) and level of lipid peroxidation (malondialdehyde, MDA) were quantified as oxidative stress markers.

[6] = target: T3, brain acetylcholinesterase (Mus musculus, UniProt P21836); format: in vivo; design: unit not given here; conditions: brain homogenate, n = 8
T3 construct: The brain was extracted, and a homogenate (10% w/v) in 0.1 M of phosphate buffer (pH 7.4) was prepared; from tissue; host or cells: mouse brain homogenate
Description: as §2, §6

[7] = 7.5 mg/kg b.w., n = 8, 7.5 mg/kg

T3 sequence (P21836 32-614): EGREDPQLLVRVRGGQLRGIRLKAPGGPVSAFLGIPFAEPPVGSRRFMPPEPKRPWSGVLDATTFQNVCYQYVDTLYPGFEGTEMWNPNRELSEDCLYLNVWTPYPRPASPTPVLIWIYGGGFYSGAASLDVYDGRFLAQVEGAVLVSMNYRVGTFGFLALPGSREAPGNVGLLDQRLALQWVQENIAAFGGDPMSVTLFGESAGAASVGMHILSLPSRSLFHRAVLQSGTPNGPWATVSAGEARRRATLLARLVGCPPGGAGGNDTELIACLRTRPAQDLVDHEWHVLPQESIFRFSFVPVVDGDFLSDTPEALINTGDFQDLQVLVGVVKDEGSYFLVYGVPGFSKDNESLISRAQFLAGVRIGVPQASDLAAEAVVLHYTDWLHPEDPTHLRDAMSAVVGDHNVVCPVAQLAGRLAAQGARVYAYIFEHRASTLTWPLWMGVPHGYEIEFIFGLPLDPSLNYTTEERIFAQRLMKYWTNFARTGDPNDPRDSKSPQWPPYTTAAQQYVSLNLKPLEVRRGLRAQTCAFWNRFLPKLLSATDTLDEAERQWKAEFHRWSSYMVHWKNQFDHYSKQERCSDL
T2 sequence (O42275 24-633): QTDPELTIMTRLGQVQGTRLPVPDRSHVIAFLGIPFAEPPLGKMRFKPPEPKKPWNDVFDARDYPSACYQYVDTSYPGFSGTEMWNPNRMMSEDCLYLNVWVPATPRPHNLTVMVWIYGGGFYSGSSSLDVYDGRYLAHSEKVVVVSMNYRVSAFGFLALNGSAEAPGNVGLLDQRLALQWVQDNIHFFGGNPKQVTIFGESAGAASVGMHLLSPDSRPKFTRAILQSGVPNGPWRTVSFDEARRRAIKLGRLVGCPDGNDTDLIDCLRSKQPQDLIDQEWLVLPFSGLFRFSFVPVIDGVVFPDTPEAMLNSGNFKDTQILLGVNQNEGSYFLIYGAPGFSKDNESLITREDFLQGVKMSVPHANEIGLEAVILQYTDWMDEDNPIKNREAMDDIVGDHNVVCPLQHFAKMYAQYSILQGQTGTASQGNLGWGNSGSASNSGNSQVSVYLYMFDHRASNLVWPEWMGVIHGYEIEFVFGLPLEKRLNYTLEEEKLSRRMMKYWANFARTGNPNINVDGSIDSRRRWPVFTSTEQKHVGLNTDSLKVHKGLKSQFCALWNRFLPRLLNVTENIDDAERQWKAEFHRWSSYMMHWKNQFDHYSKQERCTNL
T1 sequence (P81908 whole entry): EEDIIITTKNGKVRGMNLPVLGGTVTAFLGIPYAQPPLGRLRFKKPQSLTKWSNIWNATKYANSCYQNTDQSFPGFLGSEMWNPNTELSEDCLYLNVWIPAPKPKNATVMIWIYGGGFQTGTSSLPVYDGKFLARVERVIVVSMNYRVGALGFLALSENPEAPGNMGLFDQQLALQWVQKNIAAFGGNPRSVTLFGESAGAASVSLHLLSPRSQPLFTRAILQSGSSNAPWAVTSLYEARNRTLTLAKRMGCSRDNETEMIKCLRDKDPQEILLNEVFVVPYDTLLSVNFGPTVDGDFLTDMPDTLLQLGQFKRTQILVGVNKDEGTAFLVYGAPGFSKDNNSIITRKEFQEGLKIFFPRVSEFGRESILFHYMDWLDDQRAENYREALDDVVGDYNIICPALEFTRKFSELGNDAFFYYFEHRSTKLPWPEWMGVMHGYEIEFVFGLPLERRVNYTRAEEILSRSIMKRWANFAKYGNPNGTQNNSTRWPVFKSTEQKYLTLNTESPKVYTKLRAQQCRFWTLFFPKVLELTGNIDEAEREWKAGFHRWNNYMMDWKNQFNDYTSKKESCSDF

O=c1cc(-c2cc(Cl)ccc2Cl)oc2ccccc12 [Compound F5]
ALP (Balb/C mice; 600 mg/kg b.w. oral): 134.41 ± 2.81 U/L | AST (Balb/C mice; 600 mg/kg b.w. oral): 108.37 ± 1.97 U/L | Creatinine (Balb/C mice; 600 mg/kg b.w. oral): 0.28 ± 0.04 mg/dL | Glucose (Balb/C mice; 600 mg/kg b.w. oral): 86.98 ± 2.12 mg/dL | Total Cholesterol (Balb/C mice; 600 mg/kg b.w. oral): 102.91 ± 1.93 mg/dL | Triglyceride (Balb/C mice; 600 mg/kg b.w. oral): 95.31 ± 2.61 mg/dL | Kidney Weight (Balb/C mice; 600 mg/kg b.w. oral): 0.30 ± 0.21 g | Liver Weight (Balb/C mice; 600 mg/kg b.w. oral): 1.24 ± 0.25 g | Total Weight (Balb/C mice; 600 mg/kg b.w. oral): 20.97 ± 1.66 g | ALP (Balb/C mice; 1000 mg/kg b.w. oral): 135.87 ± 2.24 U/L | AST (Balb/C mice; 1000 mg/kg b.w. oral): 107.41 ± 2.03 U/L | Creatinine (Balb/C mice; 1000 mg/kg b.w. oral): 0.35 ± 0.05 mg/dL | Glucose (Balb/C mice; 1000 mg/kg b.w. oral): 87.01 ± 2.21 mg/dL | Total Cholesterol (Balb/C mice; 1000 mg/kg b.w. oral): 103.02 ± 1.79 mg/dL | Triglyceride (Balb/C mice; 1000 mg/kg b.w. oral): 96.08 ± 2.01 mg/dL | Kidney Weight (Balb/C mice; 1000 mg/kg b.w. oral): 0.31 ± 0.24 g | Liver Weight (Balb/C mice; 1000 mg/kg b.w. oral): 1.22 ± 0.29 g | Total Weight (Balb/C mice; 1000 mg/kg b.w. oral): 21.88 ± 1.89 g | ALP (Balb/C mice; 2000 mg/kg b.w. oral): 133.91 ± 3.71 U/L | AST (Balb/C mice; 2000 mg/kg b.w. oral): 108.39 ± 1.89 U/L | Creatinine (Balb/C mice; 2000 mg/kg b.w. oral): 0.33 ± 0.06 mg/dL | Glucose (Balb/C mice; 2000 mg/kg b.w. oral): 86.89 ± 1.98 mg/dL | Total Cholesterol (Balb/C mice; 2000 mg/kg b.w. oral): 102.73 ± 2.10 mg/dL | Triglyceride (Balb/C mice; 2000 mg/kg b.w. oral): 95.37 ± 1.98 mg/dL | Kidney Weight (Balb/C mice; 2000 mg/kg b.w. oral): 0.29 ± 0.20 g | Liver Weight (Balb/C mice; 2000 mg/kg b.w. oral): 1.26 ± 0.21 g | Total Weight (Balb/C mice; 2000 mg/kg b.w. oral): 22.91 ± 1.67 g | ALP (Balb/C mice; 3000 mg/kg b.w. oral): 134.02 ± 3.28 U/L | AST (Balb/C mice; 3000 mg/kg b.w. oral): 107.76 ± 1.92 U/L | Creatinine (Balb/C mice; 3000 mg/kg b.w. oral): 0.30 ± 0.04 mg/dL | Glucose (Balb/C mice; 3000 mg/kg b.w. oral): 85.34 ± 2.01 mg/dL | Total Cholesterol (Balb/C mice; 3000 mg/kg b.w. oral): 103.09 ± 1.83 mg/dL | Triglyceride (Balb/C mice; 3000 mg/kg b.w. oral): 96.50 ± 2.05 mg/dL | Kidney Weight (Balb/C mice; 3000 mg/kg b.w. oral): 0.30 ± 0.19 g | Liver Weight (Balb/C mice; 3000 mg/kg b.w. oral): 1.23 ± 0.25 g | Total Weight (Balb/C mice; 3000 mg/kg b.w. oral): 22.65 ± 1.91 g | Spontaneous Alternation Performance ([1]; 7.5 mg/kg b.w. p.o. 4 weeks): 67.94 ± 1.51% | Spontaneous Alternation Performance ([1]; 15 mg/kg b.w. p.o. 4 weeks): 73.11 ± 1.63% | Spontaneous alternation performance (preliminary, selection of doses) ([1]; Table S1, dose 2.5 mg/kg b.w.): 38.63±1.78 | Spontaneous alternation performance (preliminary, selection of doses) ([1]; Table S1, dose 5 mg/kg b.w.): 43.87±1.94 | Spontaneous alternation performance (preliminary, selection of doses) ([1]; Table S1, dose 7.5 mg/kg b.w.): 66.53±1.89 | Spontaneous alternation performance (preliminary, selection of doses) ([1]; Table S1, dose 10 mg/kg b.w.): 66.97±1.72 | Spontaneous alternation performance (preliminary, selection of doses) ([1]; Table S1, dose 12.5 mg/kg b.w.): 67.33±2.05 | IC50 [2]: 376 µM | IC50 [3]: 338 µM | discrimination index (%DI) ([4]; 7.5 mg/kg b.w. p.o. 4 weeks): 59.76 ± 1.24% | discrimination index (%DI) ([4]; 15 mg/kg b.w. p.o. 4 weeks): 62.12 ± 1.28% | GSH ([5]; 7.5 mg/kg b.w.): 37.28 ± 1.60 μg/mg of Protein | MDA ([5]; 7.5 mg/kg b.w.): 14.98 ± 1.22 nmol/mg Protein | CAT [5, 7]: 24.18 ± 1.41 U/mg of Protein | SOD [5, 7]: 9.88 ± 1.49 U/mg of Protein | GSH ([5]; 15 mg/kg b.w.): 39.01 ± 1.39 μg/mg of Protein | MDA ([5]; 15 mg/kg b.w.): 14.48 ± 1.38 nmol/mg Protein | CAT ([5]; 15 mg/kg b.w., n = 8, 15 mg/kg): 24.91 ± 1.29 U/mg of Protein | SOD ([5]; 15 mg/kg b.w., n = 8, 15 mg/kg): 10.20 ± 1.62 U/mg of Protein | level of AChE ([6]; 7.5 mg/kg b.w.): 15.34 ± 0.69 | level of AChE ([6]; 15 mg/kg b.w.): 14.67 ± 0.67
